Tests used:
Cavia porcellus [1] = species: Cavia porcellus; test: Concentration required to inhibit spontaneous tone of guinea pig isolated tracheal spirals; format: functional; conditions: Trachea
Rattus norvegicus [2] = species: Rattus norvegicus; test: Concentration required to inhibit NA-induced contractions in rat portal vein by 50%; format: functional
Rattus norvegicus [3] = species: Rattus norvegicus; test: Percent inhibition of NA-induced contractions in rat portal vein at 10 uM was evaluated; format: functional; conditions: for inhibition at 10 µM: Rattus norvegicus
Cavia porcellus [4] = species: Cavia porcellus; test: Compound was evaluated for its hypotensive activity (decrease in blood pressure) in male guinea pigs.; format: functional
Cavia porcellus [5] = test: Compound was evaluated in vivo for its ability to inhibit methacholine induced bronchospasm in male guinea pig.; format: functional
Rattus norvegicus [6] = species: Rattus norvegicus; test: Compound was evaluated for its hypotensive activity (decrease in blood pressure) in normotensive rats.; format: functional
Rattus norvegicus [7] = test: Changes in systolic blood pressure was measured at intervals of 1 hr for 4 hr after oral administration of 0.1 mg/kg in rats; format: functional, Artery

## CC1(C)C=C(c2ccccn2)c2cc(Br)ccc2C1=O
Cavia porcellus [1]
  IC50: > 10000 nM
Rattus norvegicus [2]
  IC50: 48000 nM

## COC1(c2cccc[n+]2[O-])CC(C)(C)C(=O)c2ccc(Br)cc21 (stereo not drawn)
Cavia porcellus [1]
  IC50: > 10000 nM
Rattus norvegicus [3]
  inhibition at 10 µM: 20%

## CC1(C)C=C(c2cccc[n+]2[O-])c2cc(C#N)ccc2C1=O
Cavia porcellus [4]
  ED25: 0.0647 mg/kg
Cavia porcellus [5]
  ED25: 0.0303 mg/kg
Cavia porcellus [1]
  IC50: 200 nM
Rattus norvegicus [2]
  IC50: 900 nM
Rattus norvegicus [6]
  ED25: 0.079 mg/kg

## CC1(C)CC(O)(c2cccc[n+]2[O-])c2cc(C#N)ccc2C1=O (stereo not drawn)
Cavia porcellus [1]
  IC50: 7300 nM
Rattus norvegicus [3]
  inhibition at 10 µM: 30%

## CC1(C)C(=O)c2ccc(Br)cc2C2(c3cccc[n+]3[O-])OC12 (stereo not drawn)
Cavia porcellus [1]
  IC50: 1700 nM
Rattus norvegicus [3]
  Inhibition: 12%

## CC1(C)C=C(c2cccc[n+]2[O-])c2cc(C(F)(F)C(F)(F)F)ccc2C1=O
Cavia porcellus [4]
  ED25: 0.0876 mg/kg
Cavia porcellus [5]
  ED25: 0.036 mg/kg
Cavia porcellus [1]
  IC50: 110 nM
Rattus norvegicus [2]
  IC50: 590 nM
Rattus norvegicus [6]
  ED25: 0.776 mg/kg

## CC1(C)C=C(c2cccc[n+]2[O-])c2cc(Br)ccc2C1=O
Cavia porcellus [4]
  ED25: 0.0891 mg/kg
Cavia porcellus [5]
  ED50: 0.148 mg/kg
Cavia porcellus [1]
  IC50: 230 nM
Rattus norvegicus [2]
  IC50: 810 nM
Rattus norvegicus [7]
  Max fall in blood pressure: 53 mmHg
Rattus norvegicus [6]
  ED25: 0.0877 mg/kg

## CC1(C)Oc2ccc(C#N)cc2[C@H](N2CCCC2=O)[C@H]1O (single isomer, unassigned) [(-)-CROMAKALIM]
Cavia porcellus [4]
  ED25: 0.0075 mg/kg
Cavia porcellus [5]
  ED25: 0.0162 mg/kg
Cavia porcellus [1]
  IC50: 280 nM
Rattus norvegicus [2]
  IC50: 100 nM
Rattus norvegicus [6]
  ED25: 0.0215 mg/kg

## CC1(C)C=C(c2cccc[n+]2[O-])c2cc(Cl)c(Cl)cc2C1=O
Cavia porcellus [4]
  ED25: 0.0933 mg/kg
Cavia porcellus [5]
  ED50: 0.0912 mg/kg
Cavia porcellus [1]
  IC50: 210 nM
Rattus norvegicus [2]
  IC50: 470 nM
Rattus norvegicus [7]
  Max fall in blood pressure: 74 mmHg
Rattus norvegicus [6]
  ED25: 0.079 mg/kg

## CC1(C)CC(c2cccc[n+]2[O-])c2cc(C#N)ccc2C1=O (stereo not drawn)
Cavia porcellus [1]
  IC50: 2500 nM
Rattus norvegicus [2]
  IC50: 160 nM
Rattus norvegicus [7]
  Max fall in blood pressure: 99.5 mmHg
